Results published in patent US20240197729A1, “ALK-5 Inhibitors and Uses Thereof” (Sumitomo Pharma Oncology, Inc., priority 2021, published 2024).

How the values were obtained:
[1] = tested on: bleomycin-induced lung fibrosis; assay: Bleomycin-induced lung fibrosis study; type: in vivo, mice; settings: for formation of fibrosis, Masson's trichrome stained lung tissue: 25 or 50 mg/kg BID, responding animals; for Ashcroft score, group comparison to the bleomycin/vehicle group: all doses, five animals per group
Procedure: The most common animal model of pulmonary fibrosis is the bleomycin-induced lung fibrosis model in rodents. This model is commonly used to investigate biology and potential therapies for fibrotic diseases affecting the lung, such as idiopathic pulmonary fibrosis (IPF). Bleomycin, a cytotoxic drug, is administered to mice or rats and causes direct cell injury triggered by DNA strand breaks, which leads to an overproduction of reactive oxygen species causing inflammation, pulmonary toxicity, activation of fibroblasts and subsequent fibrosis. Fibrosis is hallmarked by aberrant activation of lung epithelial cells and accumulation of fibroblasts and myofibroblasts with excessive production of extracellular matrix such as collagen. To test the ability of Compound 01 and Compound 04 to reduce fibrosis in vivo, a bleomycin induced lung fibrosis model in mice was utilized and endpoints such as lung hydroxyproline levels, a surrogate marker of collagen and fibrosis, and histological scoring of fibrosis were performed.
For this study, male C57BL/6J mice approximately 6 to 7 weeks old (purchased from Charles River) were weighed on the day prior to study day 0 to establish a baseline. All study arms contained sixteen total animals, except the sham/vehicle group, which contained 10 animals. All animals, except the sham/vehicle group were dosed intranasally with 4 international units per kilogram bleomycin in the morning of day 1 of the study. Bleomycin was prepared in a solution of 0.9 percent sodium chloride. All drugs were prepared in 10 percent Tween 20. Starting in the evening on day 1 of the study, one dose of Compound 04 or Compound 01 was given at either twenty-five or fifty milligrams per kilogram per oral gavage. For all subsequent days of the twenty-one day study, animals were dosed twice a day per oral gavage with either twenty-five or fifty milligram per kilogram of Compound 04 or Compound 01. At day twenty-one, the lungs were harvested and either snap frozen or fixed in paraformaldehyde. The left lobe of the lungs was subjected to hydroxyproline quantification, which was used as a biomarker of fibrosis and total collagen. The remaining lung tissue was fixed in paraformaldehyde to be processed for histological examination following hematoxylin-eosin (H&E) and Masson trichrome staining. […]. Clinical observations were recorded daily.

A549 lung fibroblasts = assay: Epithelial to mesenchymal transition gene expression in A549; type: cell-based; settings: 5 ng/ml TGF-beta1, 48 h, up to 5 micromolar
Procedure: To evaluate whether Compounds 01 and 04 could inhibit epithelial to mesenchymal transition (EMT), an in vitro model using A549 lung fibroblasts was utilized. A549 cells were purchased from ATCC (CCL-185), and grown in RPMI media supplemented with 10 percent fetal bovine serum (FBS). On the day of the experiment, ten thousand A549 cells were seeded in eighty microliters total volume into a flat, tissue culture coated, ninety-six-well plate. Drugs, including positive control compounds vactosertib, PF-06952229 and LY3200882, were added in an eight point, one to three dilution series with the highest concentration of each drug being five micromolar, bringing the total volume of each well to ninety microliters. DMSO, which served to dissolve the 10 millimolar stock solution of each drug, was normalized across all wells After one hour of drug pretreatment, recombinant human TGF-beta1 was added to a final concentration of five nanograms per milliliter, bringing the volume to one hundred microliters. Recombinant human TGF-beta 1 was purchased from R&D Systems (7754-BH-005) and its stock solution was prepared according to manufacturer's instructions and diluted in RPMI media supplemented with 10% FBS. The ninety-six well plate with one hundred microliter volume was incubated at 37° C. at 5% CO2 for forty-eight hours. At the end of the incubation period, gene expression levels of various EMT markers were assessed using a custom designed QuantiGene Plex Gene Expression Assay. The genes chosen were CDH1 (E-cadherin), CDH2 (N-Cadherin), SNAI1 (Snail), SNAI2 (Slug), VIM (Vimentin), SPARC, GALNT6, CTNNB1 (beta-catenin), TGFB1, and MAML3.
Briefly, cell lysate was prepared using the QuantiGene Sample Processing Kit —Cultured Cells (QS0100) in the ninety-six well plate. Cell lysates were then subjected to bead hybridization, multiple probe hybridization steps and SAPE labeling following manufacturer's instruction. The plate was read on a Luminex MAGPIX instrument.

athymic nude mice = settings: mouse, in vivo; for therapeutic index: female, athymic nude (NCRNU), 5 days; for MTD / tolerability, acute MTD study: po
Procedure: . Evaluation of the acute and chronic maximum tolerated dose (MTD) for Compound 04 and Compound 01 was carried out by oral gavage administration of each compound to athymic nude mice according to the following procedure.
Five weeks-old female athymic nude mice (NCRNU) were purchased from Taconic Biosciences, Rensselaer NY, and acclimated for one week. Mice were approximately […] when enrolled in the study. All compounds were resuspended in 1-methyl-2-pyrrolidinone (Sigma, 494496) (10% v/v) plus 20% Solutol (Sigma 42966) in water (90% v/v). Mice were randomized according to the baseline weight (Day 1) at the beginning of the acute and chronic MTD studies.
For the acute MTD study, mice were administered three escalating doses of each compound every other day (two animals per group). Mice were dosed by oral gavage with one hundred milligrams per kilogram on day one, five hundred milligrams per kilogram on day three, and one thousand milligrams per kilogram on day five. Body weight was measured every day, and the percent body weight change was calculated.
For the chronic MTD study, three groups, with three mice per group were dosed daily for five consecutive days, at one hundred, three hundred, or one thousand milligrams per kilogram of Compound 04 or Compound 01, and observed for five consecutive days post-dosing during recovery. Body weight was measured, and clinical observations were recorded daily for ten consecutive days. A vehicle only treatment group of three mice was included to evaluate potential toxicity of the vehicle. The percent body weight change for each day was calculated based on Day 1 measurements.

[2] = tested on: TGF-β1-mediated αSMA expression; settings: human, 73 h
Procedure: To test the ability of selected compounds to inhibit the TGF-β1-dependent transition of fibroblasts to myofibroblasts in a relevant disease model of IPF, an FMT assay was performed using lung fibroblasts from IPF patients. In this assay, the transition of fibroblasts to myofibroblasts is determined by the expression of the biomarker alpha smooth muscle actin (α-SMA).
Primary human bronchial fibroblasts derived from IPF patients were seeded on day zero and the media was refreshed on day two. On day five, selected compounds or controls were added at an eight-point concentration response curve starting at 10 μM (semi-log dilutions). Each drug concentration condition was evaluated in biological duplicates. […] Seventy-two hours following TGF-beta addition, the cells were fixed with formaldehyde. High content imaging evaluating cell number using the nuclear stain DAPI as well as the expression of a-SMA was performed. The following controls were run alongside the selected compounds: vactosertib and the approved IPF drug nintedanib (at an eight-point, semi-log curve with 10 μM starting concentration). As a negative control 0.1% DMSO was also used, matching the DMSO concentration in treated wells. The following calculations were used to determine cell number as well as percent inhibition (PIN) of alpha SMA expression:
• Segmentation and quantification of αSMA immunoreactivity by an HCA algorithm, with density×area (D×A) output • Data normalization of raw αSMA (D×A) to percentage inhibition (PIN) values, on a plate-to-plate basis
• DAPI fluorescence applied for HCA-based quantification of the number of imaged cells, on a plate-to-plate basis
[formula] • μn is the average numbers of nuclei of the vehicle control (TGF-β1+0.1% DMSO) • Xi is the compound number of nuclei

SMILES | formation of fibrosis, Masson's trichrome stained lung tissue [1] | Ashcroft score, group comparison to the bleomycin/vehicle group [1] | CDH1 (E-Cadherin) gene expression (A549 lung fibroblasts) | expression of the nine genes induced with EMT (CDH2, SNAI1, SNAI2, VIM, SPARC, GALNT6, CTNNB1, TGFB1, MAML3) (A549 lung fibroblasts) | therapeutic index (athymic nude mice) | MTD (athymic nude mice) | tolerability, acute MTD study (athymic nude mice) | Potentially toxic concentration [2]
Cc1nn(CC(F)(F)F)cc1Nc1cc(Nc2cnnc3c(C)cccc23)ccn1 [Compound 01, N2-[3-methyl-1-(2,2,2-trifluoroethyl)-1H-pyrazol-4-yl]-N4-(8-methylcinnolin-4-yl)pyridine-2,4-diamine] | reduced the formation of fibrosis | not statistically significant | inhibition of downregulation of CDH1 (E-Cadherin) | inhibition of induction of the nine genes that are induced with EMT | less than 4 × | less than three hundred | well tolerated in mice at one thousand milligrams per kilogram with single dose administration | 
Clc1cccc2c(Nc3ccnc(Nc4cccc(N5CCOCC5)c4)c3)cnnc12 [Compound 04, N4-(8-chlorocinnolin-4-yl)-N2-[3-(morpholin-4-yl)phenyl]pyridine-2,4-diamine] | reduced the formation of fibrosis | not statistically significant | inhibition of downregulation of CDH1 (E-Cadherin) | inhibition of induction of the nine genes that are induced with EMT | 6 × | three hundred | well tolerated in mice at one thousand milligrams per kilogram with single dose administration | 
Cc1cccc(-c2[nH]c(CNc3ccccc3F)nc2-c2ccc3ncnn3c2)n1 [Vactosertib, vactosertib, reference compound] |  |  |  |  |  |  |  | 5.0
